The test system of this experiment is T1, myrosinase from Lepidium sativum seeds.
T1 construct: gene beta-thioglucoside glucohydrolase
As to the kind of experiment: glucose release, glucose oxidase-peroxidase coupled assay, Michaelis-Menten fit. Format: biochemical. The settings on record: pH 6.0, 37 °C, 100 μM L-ascorbic acid; read-out: KM (×10^-3 mol/L). From the text: glucose release, glucose oxidase-peroxidase coupled assay, Michaelis-Menten fit on myrosinase from Lepidium sativum seeds

Structures are written as SMILES.

As for `C=CC/C(=N/OS(=O)(=O)O)S[C@@H]1O[C@H](CO)[C@@H](O)[C@H](O)[C@H]1O` [Sinigrin], the Km was determined as 574 ± 237 µM.

With `O=S(=O)(O)O/N=C(/Cc1ccc(O)cc1)S[C@@H]1O[C@H](CO)[C@@H](O)[C@H](O)[C@H]1O` [Sinalbin], the Km came to 632 ± 235 µM. As for `C[S+]([O-])CCCC/C(=N/OS(=O)(=O)O)S[C@@H]1O[C@H](CO)[C@@H](O)[C@H](O)[C@H]1O` (stereo partly drawn) [Glucoraphanin], the Km amounted to 1130 ± 256 µM.

For the origin of these results see publication PMC8945721, “Sulphoraphane Affinity-Based Chromatography for the Purification of Myrosinase from Lepidium sativum Seeds” (Biomolecules, 2022).
